From article PMC5615911 (Toxicology Reports, 2016)

Columns and labels:
[1] = 90-day subchronic toxicity study; type: in vivo, Sprague-Dawley rats
CYP2D6 = CYP2D6 (Homo sapiens, UniProt P10635); experiment: CYP inhibition, LC–MS/MS assay in human liver microsomes; conditions: probe bufuralol
[2] = 28-day dose-range finding toxicity study; type: in vivo, Sprague-Dawley rats; conditions: 10, 30, 100 mg/kg bw/day (food ad-mix)
[3] = In vivo metabolism of S3643, single oral dose 100 mg/kg bw; set-up: species or system Sprague-Dawley rats
CYP2C19 = CYP2C19 (Homo sapiens, UniProt P33261); experiment: CYP inhibition, LC–MS/MS assay in human liver microsomes; conditions: probe S-mephenytoin
[4] = tested on: S. typhimurium strains TA98, TA100, TA1535, TA1537; experiment: Bacterial reverse mutation test; type: cell-based
[5] = 10, 30, 100 mg/kg bw/day (food ad-mix)
[6] = both, Sprague-Dawley, rat, plasma, oral, 100 mg/kg bw
[7] = rat plasma at 1 h, males and females combined

Sequence of CYP2C19 (P33261 whole entry): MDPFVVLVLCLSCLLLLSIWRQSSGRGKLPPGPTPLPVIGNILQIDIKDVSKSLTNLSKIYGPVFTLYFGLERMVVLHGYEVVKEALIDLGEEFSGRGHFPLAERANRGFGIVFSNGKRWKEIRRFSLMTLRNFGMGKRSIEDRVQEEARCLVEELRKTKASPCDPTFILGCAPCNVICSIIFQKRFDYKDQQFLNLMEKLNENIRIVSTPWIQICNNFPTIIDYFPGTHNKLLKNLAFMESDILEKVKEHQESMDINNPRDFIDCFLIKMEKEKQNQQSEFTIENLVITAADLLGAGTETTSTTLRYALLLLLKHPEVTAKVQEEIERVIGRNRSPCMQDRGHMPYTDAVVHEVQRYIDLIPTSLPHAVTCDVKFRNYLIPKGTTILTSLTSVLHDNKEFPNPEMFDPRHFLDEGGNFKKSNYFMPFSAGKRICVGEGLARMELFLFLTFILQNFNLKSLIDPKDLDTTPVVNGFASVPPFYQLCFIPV
Sequence of CYP2D6 (P10635 whole entry): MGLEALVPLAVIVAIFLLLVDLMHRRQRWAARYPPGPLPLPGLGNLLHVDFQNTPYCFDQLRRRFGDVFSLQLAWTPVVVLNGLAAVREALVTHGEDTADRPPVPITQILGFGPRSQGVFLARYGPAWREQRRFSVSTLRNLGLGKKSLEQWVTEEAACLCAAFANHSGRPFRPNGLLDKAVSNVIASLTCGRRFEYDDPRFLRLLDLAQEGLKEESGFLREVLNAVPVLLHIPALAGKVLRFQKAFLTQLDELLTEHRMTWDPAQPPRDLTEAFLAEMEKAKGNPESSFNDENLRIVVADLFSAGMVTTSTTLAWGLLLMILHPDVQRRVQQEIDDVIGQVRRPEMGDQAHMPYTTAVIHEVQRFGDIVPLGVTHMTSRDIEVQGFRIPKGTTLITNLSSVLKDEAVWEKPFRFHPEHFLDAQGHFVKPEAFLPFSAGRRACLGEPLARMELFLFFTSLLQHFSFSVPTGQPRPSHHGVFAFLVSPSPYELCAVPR

## COc1cccc(-c2n[nH]c(SCc3ccccn3)n2)c1OC [S3643, 2-(((3-(2,3-dimethoxyphenyl)-1H-1,2,4-triazol-5-yl)thio)methyl)pyridine]
[1]; [5]
  Findings, adverse effects: No adverse test-article related findings
  Findings, body weight: Lower body weight gain in females at 100 mg/kg/day
[1]; 90 days in diet, male and female rats, highest dose tested
  NOAEL: 100 mg/kg bw/day
[1]; females, 100 mg/kg bw/day, beginning at Week 5
  Mean body weight lower than controls: 7%
[1]; males, 100 mg/kg bw/day
  Absolute liver weight increase vs control: 12.5%
  Liver/body weight increase vs control: 14.1%
  Liver/brain weight increase vs control: 13.5%
[1]; rat, in vivo
  Margin of safety (NOAEL vs per capita intake 5 μg/kg bw/day): > 20,000 fold
CYP2D6
  inhibition at 10 µM: 22%
[2]
  Findings: No test-article related findings
[3]; [6]
  concentration at 0.25 h: 86000 ng/mL
  concentration at 0.5 h: 81400 ng/mL
  concentration at 1 h: 55900 ng/mL
  concentration at 2 h: 29200 ng/mL
  concentration at 4 h: 14100 ng/mL
  concentration at 8 h: 4830 ng/mL
  concentration at 24 h: 63 ng/mL
[3]; [7]
  % Peak Area: 55.52%
  Peak Area (×10^6): 69.9
CYP2C19
  inhibition at 10 µM: 13%
[4]; 63–1000 μg/plate, preincubation, +S9
  Reverse mutation (in vitro), result: Negative
[4]; 130–2000 μg/plate, plate incorporation, ±S9
  Reverse mutation (in vitro), result: Negative
[4]; 130–2000 μg/plate, preincubation, −S9
  Reverse mutation (in vitro), result: Negative
[4]; absence and presence of metabolic activation
  Mutagenicity, conclusion: not mutagenic
